Laboratory results taken from patent publication US8809372B2, “Pyridine derivatives” (Endo Pharmaceuticals, Inc., priority 2011, dated 2014).

biological target: T1, human CYP17 in H295R adrenocortical carcinoma cells (Homo sapiens, UniProt P05093); assay: Cell-based human CYP17 inhibition assay, H295R cells; conditions: 16 hours, read-out: CYP17 (human H295R adrenal cells)
T1 construct: H295R Adrenocortical carcinoma cells [NCI-H295A, ATCC Number CRL-2128, American Type Culture Collection; host or cells: H295R adrenocortical carcinoma cells
T1 sequence (P05093 1-508): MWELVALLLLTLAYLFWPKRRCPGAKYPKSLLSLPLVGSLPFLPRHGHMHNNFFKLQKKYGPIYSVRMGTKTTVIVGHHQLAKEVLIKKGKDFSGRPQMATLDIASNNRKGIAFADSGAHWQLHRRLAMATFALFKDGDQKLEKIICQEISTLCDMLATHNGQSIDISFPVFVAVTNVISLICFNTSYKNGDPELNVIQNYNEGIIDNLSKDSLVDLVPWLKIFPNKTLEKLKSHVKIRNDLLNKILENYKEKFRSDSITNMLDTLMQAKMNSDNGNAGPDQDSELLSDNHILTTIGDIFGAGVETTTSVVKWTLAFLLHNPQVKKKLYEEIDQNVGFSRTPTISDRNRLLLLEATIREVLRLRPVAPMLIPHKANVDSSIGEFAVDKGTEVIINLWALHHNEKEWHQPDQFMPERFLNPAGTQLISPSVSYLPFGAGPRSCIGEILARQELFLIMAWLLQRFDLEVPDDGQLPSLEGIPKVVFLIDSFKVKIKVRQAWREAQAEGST
Method in brief: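 H295R cells or LNCaP cells stably transfected with full-length human CYP17A1 (30,000/well) incubated 16 h at 37 °C with ³H-17α-hydroxypregnenolone and compound (top 10 μM, 3-fold dilutions, up to 10 concentrations). Medium chloroform-extracted and charcoal-treated; aqueous-phase radioactivity counted by scintillation.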

SMILES | IC50 [nM]
COc1ccc(-c2ccc(C(C)(O)c3ccncc3)nc2)cc1 (single isomer, unassigned) [Example 3, 1-(5-(4-methoxyphenyl)-pyridin-2-yl)-1-(pyridin-4-yl)ethanol] | 201 to 10000
CC(O)(c1ccncc1)c1cnc(-c2ccc(F)cc2)s1 (racemic) [Example 7, 1-(2-(4-Fluorophenyl)thiazol-5-yl)-1-(pyridin-4-yl)ethanol] | 50 to 200
Cn1cc(-c2ccc(C(C)(O)c3ccncc3)s2)ccc1=O (stereo not drawn) [Example 15, 5-(5-(1-Hydroxy-1-(pyridin-4-yl)ethyl)thiophen-2-yl)-1-methyl-pyridin-2(1H)-one] | 50 to 200
CC(O)(c1ccncc1)c1ncc(-c2ccc(F)cc2)s1 (stereo not drawn) [Example 14, 1-(5-(4-Fluorophenyl)thiazol-2-yl)-1-(pyridin-4-yl)ethanol] | < 50
COc1ccc(-c2ccc(C(C)(O)c3ccncc3)nc2)cc1 (single isomer, unassigned) [Example 2, 1-(5-(4-methoxyphenyl)-pyridin-2-yl)-1-(pyridin-4-yl)ethanol] | 50 to 200
CCC(O)(c1ccncc1)c1cnc(-c2ccc(F)cc2)s1 (stereo not drawn) [Example 4, 1-(2-(4-fluorophenyl)-thiazol-5-yl)-1-(pyridin-4-yl)propan-1-ol] | 50 to 200
CC(O)(c1ccncc1)c1cnc(-c2ccc(F)cc2)s1 (single isomer, unassigned) [Example 9, 1-(2-(4-fluorophenyl)thiazol-5-yl)-1-(pyridin-4-yl)ethanol] | < 50
CC(O)(c1ccncc1)c1cnc(-c2ccc(F)cc2)s1 (single isomer, unassigned) [Example 8, 1-(2-(4-fluorophenyl)thiazol-5-yl)-1-(pyridin-4-yl)ethanol] | 201 to 10000
CC(O)(c1ccncc1)c1nc(-c2ccc(F)cc2)no1 (stereo not drawn) [Example 34, 1-(3-(4-Fluorophenyl)-1,2,4-oxadiazol-5-yl)-1-(pyridin-4-yl)ethanol] | < 50
CC(O)(c1ccncc1)c1nc(-c2ccc(F)cc2)no1 (single isomer, unassigned; (+)) [Example 36, (+)-1-(3-(4-fluoro-phenyl)-1,2,4-oxadiazol-5-yl)-1-(pyridin-4-yl)ethanol] | < 50
Cn1cc(-c2ccc(C(C)(O)c3ccncc3)s2)ccc1=O (single isomer, unassigned; (-)) [Example 17, (−)-5-(5-(1-hydroxy-1-(pyridin-4-yl)ethyl)thiophen-2-yl)-1-methylpyridin-2(1H)-one] | < 50
COc1ccc(-c2ccc(C(C)(O)c3ccncc3)nc2)cc1 (racemic) [Example 1, 1-(5-(4-Methoxyphenyl)pyridin-2-yl)-1-(pyridin-4-yl)ethanol] | 50 to 200
